Test results as given in ChEMBL document CHEMBL4483862, “Open-source discovery of chemical leads for next-generation chemoprotective antimalarials” (2018).

System: Plasmodium berghei
Assay: Luciferase/luciferin-expressing antifolate-resistant parasites were used to infect a culture of HepG2 cells that were pre-incubated with compounds. Infected hepatocytes emit light due to the luciferase reaction. Assay results are presented as the percent inhibition of light emission compared to control. […]
Type: functional
Details: sporozoite; for IC90: read-out: LUCIFERASE INFECTION ASSAY - IC90

| Structure (SMILES) | IC90 [µM] | other results |
| --- | --- | --- |
| NS(=O)(=O)c1ccc(CCNc2nn3c(-c4cccc(OC(F)(F)F)c4)cnc3s2)cc1 | > 6.83 | IC50 (FFLUC_HILL_SLOPE 3.32, FFLUC_R_SQUARED 0.88, HEPG2TOX_HILL_SLOPE 6.82, HEPG2TOX_R_SQUARED 0.258, PBLUC_HILL_SLOPE 3.52, PBLUC_R_SQUARED 0.409, read-out: LUCIFERASE INFECTION ASSAY - IC50): 4 µM |
| O=[N+]([O-])c1ccc(-c2nnc(SCc3c(Cl)cccc3Cl)s2)o1 | > 8.5 | IC50 (FFLUC_HILL_SLOPE 3.16, FFLUC_R_SQUARED 0.676, read-out: LUCIFERASE INFECTION ASSAY - IC50): > 8.5 µM |
| CCCCCC1C/C(=C\c2ccc(C(F)(F)F)cc2)C(=O)/C(=C/c2ccc(C(F)(F)F)cc2)C1 (stereo not given) | > 6.87 | IC50 (FFLUC_HILL_SLOPE 3.17, FFLUC_R_SQUARED 0.803, HEPG2TOX_HILL_SLOPE 11.8, HEPG2TOX_R_SQUARED 0.221, PBLUC_HILL_SLOPE 15.7, PBLUC_R_SQUARED 0.195, read-out: LUCIFERASE INFECTION ASSAY - IC50): 6.26 µM |
| COCC(C)n1c(COc2ccccc2F)nnc1SC(C(=O)Nc1cc(C(F)(F)F)ccc1Cl)c1ccccc1 (stereo not given) | 9.85 | IC50 (FFLUC_HILL_SLOPE 3.29, FFLUC_R_SQUARED 0.0514, HEPG2TOX_HILL_SLOPE 2.28, HEPG2TOX_R_SQUARED 0.446, PBLUC_HILL_SLOPE 4.03, PBLUC_R_SQUARED 0.508, read-out: LUCIFERASE INFECTION ASSAY - IC50): 5.71 µM |
| O=C(c1ccccc1)c1cc(-c2nc3ccccc3[nH]2)c(-c2ccccc2)n2c1nc1ccccc12 | > 10 | IC50 (FFLUC_HILL_SLOPE 3.37, FFLUC_R_SQUARED 0.587, PBLUC_HILL_SLOPE 3.5, PBLUC_R_SQUARED 0.455, read-out: LUCIFERASE INFECTION ASSAY - IC50): 6.85 µM |
| O=C(Nc1nc(-c2c[nH]c3ccccc23)cs1)C1CCN(S(=O)(=O)/C=C/c2ccccc2)CC1 | > 10 | IC50 (FFLUC_HILL_SLOPE 3.31, FFLUC_R_SQUARED 0.738, HEPG2TOX_HILL_SLOPE 1.04, HEPG2TOX_R_SQUARED 0.854, PBLUC_HILL_SLOPE 3.38, PBLUC_R_SQUARED 0.26, read-out: LUCIFERASE INFECTION ASSAY - IC50): 5.31 µM |
| Cc1ccc(-n2c(Sc3ccc4nnnn4n3)nc3sc4c(c3c2=O)CCC(C)C4)cc1C (stereo not given) | > 10 | IC50 (FFLUC_HILL_SLOPE 3.23, FFLUC_R_SQUARED 0.696, PBLUC_HILL_SLOPE 2.23, PBLUC_R_SQUARED 0.861, read-out: LUCIFERASE INFECTION ASSAY - IC50): 4.15 µM |
| CC(NC(=O)c1cc(C2CC2)nn1-c1ccccc1)c1ccc(F)cc1F (stereo not given) | > 10 | IC50 (FFLUC_HILL_SLOPE 3.16, FFLUC_R_SQUARED 0.345, read-out: LUCIFERASE INFECTION ASSAY - IC50): > 10 µM |
| N#CC(C#N)=C/C=C(/Sc1ccc(F)c(Cl)c1)c1ccc(Cl)cc1 | 7.65 | IC50 (FFLUC_HILL_SLOPE 3.34, FFLUC_R_SQUARED 0.746, HEPG2TOX_HILL_SLOPE 5.06, HEPG2TOX_R_SQUARED 0.992, PBLUC_HILL_SLOPE 1.74, PBLUC_R_SQUARED 0.619, read-out: LUCIFERASE INFECTION ASSAY - IC50): 2.17 µM |
| CCOC(=O)c1c(S(=O)(=O)N2CCN(Cc3ccccc3)CC2)c(-c2ccccc2)n(-c2ccccc2)c1C | > 6.07 | IC50 (FFLUC_HILL_SLOPE 3.32, FFLUC_R_SQUARED 0.581, read-out: LUCIFERASE INFECTION ASSAY - IC50): > 6.07 µM |
| COc1ccc(Cl)cc1NC(=O)COC(=O)COc1ccc(/C=C2\SC(=S)N(c3cccc(C(F)(F)F)c3)C2=O)cc1OC | > 10 | IC50 (FFLUC_HILL_SLOPE 3.19, FFLUC_R_SQUARED 0.292, read-out: LUCIFERASE INFECTION ASSAY - IC50): > 10 µM |
| CCOC(=O)c1sc(NC(=O)c2cccc(S(=O)(=O)N(C)c3ccc(OC)cc3)c2)cc1C | 9.74 | IC50 (FFLUC_HILL_SLOPE 3.21, FFLUC_R_SQUARED 0.745, HEPG2TOX_HILL_SLOPE 15.7, HEPG2TOX_R_SQUARED 0.428, PBLUC_HILL_SLOPE 5.31, PBLUC_R_SQUARED 0.793, read-out: LUCIFERASE INFECTION ASSAY - IC50): 6.44 µM |
| COc1cc(Cl)c(C)cc1-n1c(SC(C(C)=O)c2ccccc2)nc2ccccc2c1=O (stereo not given) | > 10 | IC50 (FFLUC_HILL_SLOPE 3.43, FFLUC_R_SQUARED 0.242, HEPG2TOX_HILL_SLOPE 4.83, HEPG2TOX_R_SQUARED 0.785, PBLUC_HILL_SLOPE 3.87, PBLUC_R_SQUARED 0.683, read-out: LUCIFERASE INFECTION ASSAY - IC50): 6.65 µM |
| O=C(CCCc1ccc(F)cc1)c1ccc2c(c1)OCCO2 | 0.926 | IC50 (FFLUC_HILL_SLOPE 3.34, FFLUC_R_SQUARED 0.538, PBLUC_HILL_SLOPE 0.746, PBLUC_R_SQUARED 0.706, read-out: LUCIFERASE INFECTION ASSAY - IC50): 0.0487 µM |
| CC1CCc2sc(C(=O)N/N=C/c3sc(N4CCCCC4)nc3-c3cccs3)cc2C1 (stereo not given) | 5.03 | IC50 (FFLUC_HILL_SLOPE 3.43, FFLUC_R_SQUARED 0.712, HEPG2TOX_HILL_SLOPE 2.9, HEPG2TOX_R_SQUARED 0.728, PBLUC_HILL_SLOPE 3.74, PBLUC_R_SQUARED 0.491, read-out: LUCIFERASE INFECTION ASSAY - IC50): 2.79 µM |
| O=C(Nc1ccc2c(c1)OC1(CCCCC1)O2)c1ccc[nH]c1=O | > 10 | IC50 (FFLUC_HILL_SLOPE 3.32, FFLUC_R_SQUARED 0.581, PBLUC_HILL_SLOPE 0.537, PBLUC_R_SQUARED 0.823, read-out: LUCIFERASE INFECTION ASSAY - IC50): 0.172 µM |
| CCOc1c(Br)cc(C2NCC(c3cccc(OC)c3OC)c3c2[nH]c2ccccc32)cc1OC (stereo not given) | > 10 | IC50 (FFLUC_HILL_SLOPE 3.42, FFLUC_R_SQUARED 0.537, read-out: LUCIFERASE INFECTION ASSAY - IC50): > 10 µM |
| Cc1cc(C2=NNC(=NC(C)(C)C)SC2)c(C)n1-c1ccccc1 | > 10 | IC50 (FFLUC_HILL_SLOPE 3.44, FFLUC_R_SQUARED 0.101, read-out: LUCIFERASE INFECTION ASSAY - IC50): > 10 µM |
| COc1cc(/C=N/Nc2ccc(C(F)(F)F)cn2)ccc1OS(=O)(=O)c1ccc(C)c([N+](=O)[O-])c1 | > 10 | IC50 (FFLUC_HILL_SLOPE 3.31, FFLUC_R_SQUARED 0.75, read-out: LUCIFERASE INFECTION ASSAY - IC50): > 10 µM |
| Clc1cc2c(c3ncccc13)OCN(Cc1ccco1)C2 | 1.44 | IC50 (FFLUC_HILL_SLOPE 3.15, FFLUC_R_SQUARED 0.751, HEPG2TOX_HILL_SLOPE 1.67, HEPG2TOX_R_SQUARED 0.873, PBLUC_HILL_SLOPE 9.79, PBLUC_R_SQUARED 0.762, read-out: LUCIFERASE INFECTION ASSAY - IC50): 1.15 µM |
| COc1ccc(/C=C(\C#N)C(=O)N(CCCN2C(=O)c3cccc4cccc(c34)C2=O)c2ccc(C)cc2C)cc1 | > 10 | IC50 (FFLUC_HILL_SLOPE 3.25, FFLUC_R_SQUARED 0.523, read-out: LUCIFERASE INFECTION ASSAY - IC50): > 10 µM |
| Cc1ccc2nc(NC(=O)c3cccc(Cl)c3)c(C(=O)NCC(C)C)n2c1 | 1.3 | IC50 (FFLUC_HILL_SLOPE 3.3, FFLUC_R_SQUARED 0.594, HEPG2TOX_HILL_SLOPE 1.2, HEPG2TOX_R_SQUARED 0.909, PBLUC_HILL_SLOPE 9.89, PBLUC_R_SQUARED 0.561, read-out: LUCIFERASE INFECTION ASSAY - IC50): 1.04 µM |
| NC(=O)c1ccsc1NC(=O)Cc1coc2cc3c(cc12)CCC3 | 3.88 | IC50 (FFLUC_HILL_SLOPE 3.24, FFLUC_R_SQUARED 0.678, PBLUC_HILL_SLOPE 11.8, PBLUC_R_SQUARED 0.833, read-out: LUCIFERASE INFECTION ASSAY - IC50): 3.22 µM |
| O=C(Nc1nonc1-c1ccc(Cl)cc1)C(c1ccccc1)c1ccccc1 | 8.22 | IC50 (FFLUC_HILL_SLOPE 3.18, FFLUC_R_SQUARED 0.644, PBLUC_HILL_SLOPE 3.44, PBLUC_R_SQUARED 0.465, read-out: LUCIFERASE INFECTION ASSAY - IC50): 4.34 µM |
| CCCC(C)C(=O)Nc1nc2ccc(C)cn2c1C(=O)NC1CCCCC1 (stereo not given) | > 8.91 | IC50 (FFLUC_HILL_SLOPE 3.24, FFLUC_R_SQUARED 0.792, read-out: LUCIFERASE INFECTION ASSAY - IC50): > 8.91 µM |
| NC(=O)C1CCN(c2nc(-c3ccc(Cl)cc3)nc3sc4c(c23)CCC4)CC1 | 3.79 | IC50 (FFLUC_HILL_SLOPE 3.15, FFLUC_R_SQUARED 0.774, HEPG2TOX_HILL_SLOPE 6.41, HEPG2TOX_R_SQUARED 0.32, PBLUC_HILL_SLOPE 20.1, PBLUC_R_SQUARED 0.486, read-out: LUCIFERASE INFECTION ASSAY - IC50): 3.4 µM |
| O=C(NNC1=NN(c2ccccc2)c2ccc(Br)cc2N1)c1ccc(F)cc1 | > 10 | IC50 (FFLUC_HILL_SLOPE 3.33, FFLUC_R_SQUARED 0.811, read-out: LUCIFERASE INFECTION ASSAY - IC50): > 10 µM |
| CC(C)NC(=S)N/N=C1\C(=O)Nc2ccc(C(C)C)cc21 | 4.02 | IC50 (FFLUC_HILL_SLOPE 3.36, FFLUC_R_SQUARED 0.392, HEPG2TOX_HILL_SLOPE 1.41, HEPG2TOX_R_SQUARED 0.93, PBLUC_HILL_SLOPE 4.04, PBLUC_R_SQUARED 0.837, read-out: LUCIFERASE INFECTION ASSAY - IC50): 2.33 µM |
| O=C(Cc1cccs1)NCC(c1ccccc1Cl)c1c[nH]c2ccccc12 (stereo not given) | 9.35 | IC50 (FFLUC_HILL_SLOPE 3.31, FFLUC_R_SQUARED 0.784, PBLUC_HILL_SLOPE 3.75, PBLUC_R_SQUARED 0.47, read-out: LUCIFERASE INFECTION ASSAY - IC50): 5.2 µM |
| Oc1c(C(Nc2ccccn2)c2ccc(Cl)cc2Cl)ccc2cccnc12 (stereo not given) | 5.13 | IC50 (FFLUC_HILL_SLOPE 3.3, FFLUC_R_SQUARED 0.0348, HEPG2TOX_HILL_SLOPE 1.34, HEPG2TOX_R_SQUARED 0.812, PBLUC_HILL_SLOPE 6.8, PBLUC_R_SQUARED 0.449, read-out: LUCIFERASE INFECTION ASSAY - IC50): 3.71 µM |
